Literature values, collected in patent US10076471B2, “Antimicrobial denture” (University of Dammam, priority 2016, dated 2018).
Converted amounts (≈) assume the structure as drawn.

System: Candida
Details: against Candida

COC1=CC(=O)c2ccccc2C1=O [Lawsone methyl ether, 2-methoxy-1,4-napthoquinone]
minimal fungicidal concentration: 1.25 µg/mL (≈ 6.64 µM)
